Some results are limits rather than exact numbers.

The term IC50 denotes the concentration that gives 50% inhibition.

Assay [1] deals with T1, SARM1 (50-724) (Homo sapiens, UniProt Q6SZW1).
T1 sequence (Q6SZW1 50-724): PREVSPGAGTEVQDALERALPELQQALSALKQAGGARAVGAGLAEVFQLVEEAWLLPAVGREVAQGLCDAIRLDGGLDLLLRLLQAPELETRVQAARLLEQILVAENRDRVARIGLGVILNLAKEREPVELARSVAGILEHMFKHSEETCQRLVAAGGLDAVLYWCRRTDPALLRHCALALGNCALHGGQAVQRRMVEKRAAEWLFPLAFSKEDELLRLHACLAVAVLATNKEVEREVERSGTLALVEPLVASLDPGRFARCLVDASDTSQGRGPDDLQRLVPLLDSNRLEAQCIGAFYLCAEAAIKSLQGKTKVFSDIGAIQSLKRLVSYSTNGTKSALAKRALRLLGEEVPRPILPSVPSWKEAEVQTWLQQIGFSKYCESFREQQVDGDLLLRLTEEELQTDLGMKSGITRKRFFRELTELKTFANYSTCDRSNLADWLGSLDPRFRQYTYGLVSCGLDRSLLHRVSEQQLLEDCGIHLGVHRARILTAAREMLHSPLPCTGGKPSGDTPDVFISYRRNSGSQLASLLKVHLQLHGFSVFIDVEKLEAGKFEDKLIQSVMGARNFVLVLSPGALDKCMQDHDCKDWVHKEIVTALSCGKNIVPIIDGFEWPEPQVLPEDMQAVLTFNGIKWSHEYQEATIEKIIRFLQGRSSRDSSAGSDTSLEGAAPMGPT
The assay can be described thus: SARM1 (50-724) enzymatic assay. As to conditions: SARM1 inhibitory activity; purified SARM1 (50-724) 2 nM, 200 μM NMN activator, 100 μM NAD+ substrate, LC-MS/MS.
Description: (§1) An enzymatic assay was performed in a 384-well plate using Dulbecco's phosphate-buffered saline (PBS) as the reaction buffer. […] The reaction was initiated by adding a mixture of 200 μM nicotinamide mononucleotide (NMN) as activator and 100 μM NAD^+ as substrate. After 1 h of incubation at room temperature, the reaction was terminated with 10 times volume of 70% acetonitrile, then centrifuged at 3800 rpm for 10 min.

Assay [2] addresses T1, SARM1 (50-724). The assay can be described thus: biochemical.
Description: as §1

`CC(Nc1ccc2cc[nH]c(=O)c2c1)c1nccc(Cl)c1Cl` (racemic) [Example 194, 7-((1-(3,4-dichloropyridin-2-yl)ethyl)amino)isoquinolin-1(2H)-one] had a half-inhibitory concentration (IC50) in assay [1] below 100 nM. In assay [2], `CC(Nc1ccc2ccn(CC(N)=O)c(=O)c2c1)c1nn(C)c(C2CC2)c1Cl` (racemic) [Compound 315, 2-(7-((1-(4-chloro-5-cyclopropyl-1-methyl-1H-pyrazol-3-yl)ethyl)amino)-1-oxoisoquinolin-2(1H)-yl)acetamide] showed an IC50 below 100 nM. Consider `CC(Nc1ccc2c(c1)C(=O)N(CC(N)=O)C2(C)C)c1nc(Cl)c(Cl)s1` (single isomer, unassigned) [Compound 320A], for which the IC50 in assay [2] is above 1000 nM. In turn, `CC1(C)CN(C(=O)C2CCOCC2)c2cc(NS(=O)(=O)c3cccc(Cl)c3Cl)ccc21` [Compound 284, 2,3-dichloro-N-[3,3-dimethyl-1-(tetrahydropyran-4-carbonyl)indolin-6-yl]benzenesulfonamide] displayed an IC50 in assay [2] below 100 nM. In turn, `CC(Nc1ccc2c(C(F)(F)F)n(CC(N)=O)nc2c1)c1nc(Cl)c(Cl)s1` (racemic) [Compound 366, 2-(6-((1-(4,5-dichlorothiazol-2-yl)ethyl)amino)-3-(trifluoromethyl)-2H-indazol-2-yl)acetamide] registered an IC50 in assay [2] below 100 nM.

In assay [2], `[2H]C(C)(Nc1ccc2c(C)n(CC(N)=O)nc2c1)c1nc(Cl)c(Cl)s1` (single isomer, unassigned) [Compound 378] yielded a concentration for half-maximal inhibition (IC50) above 1000 nM. Same read-out and setting: the figure for `CC(Nc1ccc2cc[nH]c(=O)c2c1)c1cc(F)cc(F)c1` (racemic) [Example 114, 7-((1-(3,5-difluorophenyl)ethyl)amino)isoquinolin-1(2H)-one] is 100 to 500 nM; for `CC(Nc1cc(F)c2ncn(CC(N)=O)c(=O)c2c1)c1nc(Cl)c(Cl)s1` (single isomer, unassigned) [Compound 323A] it is above 1000 nM; for `CC1(C)CN(C(=O)c2cc[nH]c(=O)c2)c2cc(NS(=O)(=O)c3cccc(Cl)c3Cl)ccc21` [Compound 326, 2,3-dichloro-N-(3,3-dimethyl-1-(2-oxo-1,2-dihydropyridine-4-carbonyl)indolin-6-yl)benzenesulfonamide] it is below 100 nM.

`CC(Nc1ccc2nc[nH]c(=O)c2c1)c1cccc(Cl)c1Cl` (single isomer, unassigned) [Example 152]: the IC50 in assay [2] is below 100 nM. On the same count and under the same terms, the figure for `O=C1NC(CO)CCc2ccc(NS(=O)(=O)c3cccc(Cl)c3Cl)cc21` (single isomer, unassigned) [Compound 304B] is 500 to 1000 nM; for `Cc1cc(S(=O)(=O)Nc2ccc(CC(N)=O)cc2)c(F)cc1F` [Example 8A] it is above 1000 nM.

In the case of `Cc1cc(F)cc(C(CO)Nc2ccc3c(c2)C(=O)NCC3)c1` (stereo not drawn) [Example 163, 7-((1-(3-fluoro-5-methylphenyl)-2-hydroxyethyl)amino)-3,4-dihydroisoquinolin-1(2H)-one], the half-inhibitory concentration (IC50) in assay [2] was above 1000 nM. As to `CC(Nc1ccc2c(c1)C(=O)NCC2)c1cccc(Cl)c1Cl` (single isomer, unassigned) [Example 112], the concentration for half-maximal inhibition (IC50) in assay [1] is below 100 nM. Take `CC(Nc1ccc2ccn(C)c(=O)c2c1)c1ncc(Cl)s1` (racemic) [Compound 182, 7-((1-(5-chlorothiazol-2-yl)ethyl)amino)-2-methylisoquinolin-1(2H)-one]: in assay [2], the IC50 was above 1000 nM.

Source of the values: patent US20250320184A1 (SIRONAX LTD., priority 2022, published 2025).
